# “And” between values parts separate entries of the source, which are not always exact repeats. Equal values may be shown once.
# Target: GSK3β(h) (Homo sapiens, UniProt P49841)
# Test: Glycogen Synthase Kinase-3 Assay
# Assay type: biochemical
# Conditions: assay run three times for each compound; each run's value listed
# Experimental: Compounds were tested for the ability to inhibit GSK-3β protein. Briefly, in a final reaction volume of 25 μL, GSK-3β (h) (5-10 mU) was incubated with 8 mM MOPS pH 7.0, 0.2 mM EDTA, 20 μM […](p)EDEEE (phospho GS2 peptide), 10 mM Mg Acetate and [γ-^33P-ATP] (specific activity approx. 500 cpm/pmol, concentration as required). The reaction was initiated by the addition of the MgATP mix. After incubation for 40 minutes at room temperature, the reaction was stopped by the addition of 5 μL of a 3% phosphoric acid solution. 10 μL of the reaction was then spotted onto a P30 filtermat and washed three times for 5 minutes in 50 mM phosphoric acid and once in methanol prior to drying and scintillation counting.
# The GSK-3β assay was run three times for each compound.
# Chain of GSK3β(h) (P49841 whole entry): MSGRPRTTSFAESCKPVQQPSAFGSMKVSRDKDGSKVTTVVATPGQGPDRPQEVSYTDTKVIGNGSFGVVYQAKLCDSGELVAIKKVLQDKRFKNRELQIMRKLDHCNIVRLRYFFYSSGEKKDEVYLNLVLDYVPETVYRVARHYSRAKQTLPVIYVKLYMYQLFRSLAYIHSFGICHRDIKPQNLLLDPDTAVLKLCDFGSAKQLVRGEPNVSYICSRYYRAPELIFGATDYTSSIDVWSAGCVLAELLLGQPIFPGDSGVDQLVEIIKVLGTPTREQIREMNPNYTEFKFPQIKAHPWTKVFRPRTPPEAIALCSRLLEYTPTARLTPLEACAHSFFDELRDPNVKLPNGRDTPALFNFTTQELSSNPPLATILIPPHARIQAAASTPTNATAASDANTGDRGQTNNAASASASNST
row,SMILES,IC50
1,"Cc1ccc(-c2cc3cc(n2)CCCn2cc(c4ccccc42)C2=C(C(=O)NC2=O)c2cn(c4ccccc24)CCC3)cc1 [Cpd 4, 20-(4-methylphenyl)-4,14,19,26-tetraazaheptacyclo[24.6.1.1^7,14.1^18,22.0^2,6.0^8,13.0^27,32]pentatriaconta-1(33),2(6),7(35),8,10,12,18(34),19,21,27,29,31-dodecaene-3,5-dione]",0.01 µM and 0.021 µM and 0.0535 µM
2,"O=C1NC(=O)C2=C1c1cn(c3ccccc13)CCCCc1ccc(c(N3CCCC3)n1)CCCCn1cc2c2ccccc21 [Cpd 5, 33-pyrrolidin-1-yl-6,16,26,32-tetraazaheptacyclo[29.2.2.1^6,13.1^19,26.0^7,12.0^14,18.0^20,25]heptatriaconta-1(33),7,9,11,13(37),14(18),19(36),20,22,24,31,34-dodecaene-15,17-dione]",0.024 µM and 0.0193 µM and 0.0298 µM
3,"CN(C)c1nc2ccc1CCCn1cc(c3ccccc31)C1=C(C(=O)NC1=O)c1cn(c3ccccc13)CCC2 [Cpd 3, 31-(dimethylamino)-5,15,25,30-tetraazaheptacyclo[27.2.2.1^5,12.1^18,25.0^6,11.0^13,17.0^19,24]pentatriaconta-1(31),6,8,10,12(35),13(17),18(34),19,21,23,29,32-dodecaene-14,16-dione]",0.0055 µM and 0.0529 µM and 0.0521 µM
